# Results: ChEMBL document CHEMBL1157048, “Synthesis and in vitro activity of limonene derivatives against Leishmania and Trypanosoma” (Eur J Med Chem, 2010)
# Tests used:
# [1] = test system: Leishmania braziliensis; test: Antileishmanial activity against Leishmania (Viannia) braziliensis promastigotes; assay type: functional, organism-based
# [2] = Selectivity index, ratio of IC50 for rhesus monkey LLC-MK2 cells to IC50 for Leishmania (Viannia) braziliensis promastigotes; assay type: toxicity, cell-based; details: read-out: Ratio IC50
# [3] = test system: Trypanosoma cruzi; test: Antitrypanosomal activity against Trypanosoma cruzi Tulahuen 2 assessed as inhibition of epimastigotes growth; assay type: functional, organism-based
# [4] = test system: Trypanosoma cruzi; test: Antitrypanosomal activity against Trypanosoma cruzi Tulahuen 2 assessed as inhibition of epimastigotes growth at 50 uM; assay type: functional; details: read-out: GI
# [5] = Selectivity index, ratio of IC50 for rhesus monkey LLC-MK2 cells to IC50 for Leishmania amazonensis promastigotes; assay type: toxicity, cell-based; details: read-out: Ratio IC50
# [6] = test system: Leishmania amazonensis; test: Antileishmanial activity against Leishmania amazonensis promastigotes after 48 hrs; assay type: functional, organism-based
# [7] = test system: LLC-MK2; test: Cytotoxicity against rhesus monkey LLC-MK2 cells after 48 hrs; assay type: cell-based; details: Macaca mulatta, LLC-MK2, 48 h
# [8] = Selectivity index, ratio of IC50 for rhesus monkey LLC-MK2 cells to IC50 for Trypanosoma cruzi Tulahuen 2 epimastigotes; assay type: toxicity, cell-based; details: read-out: Ratio IC50
# [9] = test system: Leishmania sp.; test: Antileishmanial activity against Leishmania sp. by MTT assay; assay type: functional, organism-based
Compound,IC50 [1] [µM],IC50 [3] [µM],inhibition of growth at 50 µM [4] [%],further results
CC1=CC[C@H](C(C)CCNC(C)C)CC1 (mixture of isomers),254,,,
CC1=CC[C@H](C(C)CCNCc2ccccc2)CC1 (mixture of isomers),258,50,53.5,
CC1=CC[C@H](C(C)CCN2CCOCC2)CC1 (mixture of isomers),1030,> 50,20.7,
CC1=CC[C@H](C(C)CCN2CCNCC2)CC1 (mixture of isomers),270,19.2,82.4,
CC1=CC[C@H](C(C)CCNc2ccc(Cl)cc2)CC1 (mixture of isomers),58.4,,,
CC1=CC[C@H](C(C)CCNc2cccc(C(F)(F)F)c2)CC1 (mixture of isomers),84.6,,,
C=C(C)[C@H]1CC=C(C)CC1 [D-LIMONENE],876,> 50,0,IC50 [9]: 185 µM
CC1CS(=O)(=O)CCN1/N=C/c1ccc([N+](=O)[O-])o1 (centres undefined) [NIFURTIMOX],,,100,

# Now from value to molecule, other results behind:
IC50 [1] [µM],IC50 [3] [µM],Compound,inhibition of growth at 50 µM [4] [%],further results
27,,CC1=CC[C@H](C(C)CCNc2ccccn2)CC1 (some centres undefined),,
17.2,> 50,CCCNCCC(C)[C@H]1CC=C(C)CC1 (mixture of isomers),21,selectivity ratio [2]: 10; selectivity ratio [5]: 3.6; IC50 [6]: 53.5 µM; IC50 [7]: 192 µM
12.1,,CCCN(CCC(C)[C@H]1CC=C(C)CC1)S(=O)(=O)c1ccc(C)cc1 (mixture of isomers),,selectivity ratio [2]: 10; selectivity ratio [5]: > 5.2; IC50 [6]: 196 µM; IC50 [7]: > 1010 µM
11.5,29.5,CC1=CC[C@H](C(C)CCNc2ccccc2)CC1 (mixture of isomers),70.5,selectivity ratio [2]: 10; selectivity ratio [5]: 3.5; IC50 [6]: 89.8 µM; selectivity ratio [8]: 10.4; IC50 [7]: 312 µM
57.6,,COc1ccc(NCCC(C)[C@H]2CC=C(C)CC2)cc1 (mixture of isomers),,
28,,CC1=CC[C@H](C(C)CCNc2ccc(C)cc2)CC1 (mixture of isomers),,
35.6,50,CC1=CC[C@H](C(C)CCNCc2ccco2)CC1 (mixture of isomers),51.4,
54.5,> 50,CC1=CC[C@H](C(C)CCN(C)c2ccccc2)CC1 (mixture of isomers),0,
23.2,> 50,CC1=CC[C@H](C(C)CCNCCO)CC1 (mixture of isomers),41.8,selectivity ratio [2]: 10; selectivity ratio [5]: 3.4; IC50 [6]: 174 µM; IC50 [7]: 587 µM
48.5,,N=C(N)c1ccc(OCCCCCOc2ccc(C(=N)N)cc2)cc1 [PENTAMIDINE],,
